The source of these data is patent US6136336A, “JM216 formulations” (priority 1999, dated 2000).

The conditions of series [1]: cited from earlier work.
Series [2] is described as follows: Water-solubility of JM216 at 23° C. It counts as physicochemical. The source says: Although the oral dosage form of JM216 being pursued in the clinic has obvious advantages over injectable platinum complexes such as cisplatin and carboplatin, it is reported by M. J. McKeage et al in Cancer Chemother. Pharmacol. 36: 451-458 (1995) that the current oral capsule form may have certain pharmacokinetic disadvantages.

Series [3] can be described thus: In vitro drug absorption through excised rat rectum (Franz diffusion cell). It counts as in vitro ADME. The conditions noted are these: listed as JM216 bulk drug (non-amorphous). How it is done:
The rectum was freshly excised from each rat and was opened lengthwise using scissors. The excised rectum, serous membrane side down, was mounted on a Franz diffusion cell (reservoir volume 10 ml, 7 mm i.d. O ring flange). […] Gentamicin solution (10 mg/ml) was added to the reservoir fluid (phosphate buffer, pH 7.3) in the ratio of 1:100.
The various test samples were incorporated into standard suppository bases and then subjected to the in vitro drug absorption test. […] The suppository samples were prepared by fusion method melting the base at 50° C. for fatty bases or at 75° C. for polyethylene glycol water-soluble base. The drug was incorporated into the base at a concentration of 2 mg/80 mg base. Medium chain fatty acids (or Na salts thereof) and surface active agents were also added at the appropriate level.

The nature of series [4]: Standard dissolution test (phosphate buffer pH 7.5, 37° C.). It counts as physicochemical. To be noted: phosphate buffer 1/15 M. The source says: The present inventors first attempted to reduce the particle size of the JM216 powder obtained from chemical synthesis by grinding or milling it to an amorphous state (as confirmed by x-ray diffraction pattern). The amorphous state indicates the disappearance of particles or crystalline drug and a particle size close to the molecular level. […] The addition of β-cyclodextrin or polymers to the JM216 during the grinding did allow obtaining the drug as an amorphous powder by reduction of the aggregation. […] The ratio of drug:β-cyclodextrin or drug:polymer also has some effect on solubility, with solubility generally increasing at higher β-cyclodextrin:drug or polymer:drug ratios. Ratios of drug:β-cyclodextrin or drug:polymer of from about 1:1 to about 1:15 (w/w) can be used with ratios of from about 1:4 to 1:15 being preferred and ratios of from about 1:9 to about 1:15 being most preferred.
Dissolution test: The ground mixture containing 5 mg. of JM216 was transferred directly into 50 ml of phosphate buffer (1/15 M, pH 7.5) kept at 37° C. and was stirred with a magnetic stirrer bar at 300 rpm. An aliquot of the solution was pipetted at the indicated time intervals and filtered through a 0.45 μm membrane filter. The concentration of the dissolved JM216 was determined by high performance liquid chromatography (HPLC).
Grinding of the JM216:β-cyclodextrin or JM216:polymer mixtures may be accomplished by standard procedures, e.g. automatic mortar and pestle machines or a hybridizer (milling machine). The time needed in the grinding process may be readily determined by simple test (period analysis of the mixture by x-ray diffraction studies). A suitable grinding time with the automatic mortar and pestle machine is three hours and with the hybridizer, five minutes.

Where [5] appears, read: oral capsule, dose levels ≥200 mg/m^2.

“Also recorded” adds a separate entry of the source.

With `CC(=O)[O][Pt]([NH2])([Cl])([Cl])([NH]C1CCCCC1)[O]C(C)=O` [JM216, bis-acetato-ammine-dichloro-cyclohexylamine-platinum (IV)], the “AUC (dose proportionality)” value in series [1] (setting [5]) was “increased less than proportionally to dose”. The “Cmax (dose proportionality)” value in series [1] (setting [5]) is recorded as “increased less than proportionally to dose”. In addition, the interpatient pharmacokinetic variation result in series [1] (setting [5]) is recorded as “greater interpatient pharmacokinetic variation”. For the same compound, the urinary platinum recovery result in series [1] (setting [5]) is on record as “reduced urinary platinum recovery”. In series [1] (oral dosing), the “side effects seen with oral dosing” value was “nausea and vomitting”. In series [2], this compound came in with a water-solubility of 300 µg/mL. Moreover, in series [3], the “absorption in the rat rectum model (in words)” value was “little absorbed in the form of a suspension in water or in fatty suppository bases; also recorded: absorbed to some extent when incorporated into the water-soluble base, polyethylene glycol (PEG)”. Moreover, the “Dissolved JM216” value worked out at 0.2 mg/mL in series [4] (1 Min.); 0.3 mg/mL in series [4] (5 Min.); 0.5 mg/mL in series [4] (15 Min.); 0.5 mg/mL in series [4] (30 Min.); 0.5 mg/mL in series [4] (60 Min.).
